Assays:
NS3-NS4 [1] = target: T1, NS3-NS4 (Hepatitis C virus genotype 1a, UniProt P27958); assay: NS3-NS4 activity, IC50 (Example 37, Table 8); format: biochemical
NS3-NS4 [2] = target: T1, NS3-NS4; assay: cell-based; settings: EC50, NS3-NS4 activity

T1 sequence (P27958 1027-1657): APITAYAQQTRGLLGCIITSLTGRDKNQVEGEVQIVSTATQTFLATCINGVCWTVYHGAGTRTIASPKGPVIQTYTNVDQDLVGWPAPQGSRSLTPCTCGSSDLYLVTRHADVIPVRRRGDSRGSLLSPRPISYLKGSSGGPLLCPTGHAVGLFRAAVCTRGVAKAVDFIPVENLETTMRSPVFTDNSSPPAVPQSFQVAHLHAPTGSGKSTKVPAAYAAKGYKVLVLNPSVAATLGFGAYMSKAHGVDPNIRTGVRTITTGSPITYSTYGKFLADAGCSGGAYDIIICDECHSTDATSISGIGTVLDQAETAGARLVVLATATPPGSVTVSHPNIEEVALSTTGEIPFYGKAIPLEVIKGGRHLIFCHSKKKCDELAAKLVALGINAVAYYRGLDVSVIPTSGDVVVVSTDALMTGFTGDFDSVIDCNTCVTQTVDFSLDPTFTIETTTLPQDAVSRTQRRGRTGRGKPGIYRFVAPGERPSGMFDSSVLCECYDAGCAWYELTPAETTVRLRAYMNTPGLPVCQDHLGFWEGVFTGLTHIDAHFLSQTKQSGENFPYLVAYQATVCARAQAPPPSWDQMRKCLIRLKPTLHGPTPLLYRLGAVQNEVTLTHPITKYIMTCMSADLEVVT
T1 sequence (P27958 1658-1711): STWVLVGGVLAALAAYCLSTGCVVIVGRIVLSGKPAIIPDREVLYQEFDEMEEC

| Structure (SMILES) | IC50 (NS3-NS4 [1]) [nM] | EC50 (NS3-NS4 [2]) [nM] |
| --- | --- | --- |
| COc1cc(CS(=O)(=O)NC(=O)[C@@]23C[C@H]2CCCCCCC[C@H](NC(=O)OC(C)(C)C)C(=O)N2C[C@H](OC(=O)N4Cc5cccc(F)c5C4)C[C@H]2C(=O)N3)cc(OC)c1 [Compound 632] | < 100 | 100 to 1000 |
| CC(C)(C)OC(=O)N[C@H]1CCCCCCC[C@@H]2C[C@@]2(C(=O)NS(=O)(=O)c2ccc(Cl)nc2Cl)NC(=O)[C@@H]2C[C@@H](OC(=O)N3Cc4cccc(F)c4C3)CN2C1=O [Compound 637] | < 100 | 100 to 1000 |
| COc1ccc(S(=O)(=O)NC(=O)[C@@]23C[C@H]2CCCCCCC[C@H](NC(=O)OC(C)(C)C)C(=O)N2C[C@H](OC(=O)N4Cc5cccc(F)c5C4)C[C@H]2C(=O)N3)cn1 [Compound 638] | < 100 | < 100 |
| Cc1csc(S(=O)(=O)NC(=O)[C@@]23C[C@H]2CCCCCCC[C@H](NC(=O)OC(C)(C)C)C(=O)N2C[C@H](OC(=O)N4Cc5cccc(F)c5C4)C[C@H]2C(=O)N3)c1 [Compound 645] | < 100 | < 100 |
| CC(C)(C)OC(=O)N[C@H]1CCCCCCC[C@@H]2C[C@@]2(C(=O)NS(=O)(=O)c2cc3ccccc3o2)NC(=O)[C@@H]2C[C@@H](OC(=O)N3Cc4cccc(F)c4C3)CN2C1=O [Compound 648] | < 100 | 100 to 1000 |
| C=CCC1(S(=O)(=O)NC(=O)[C@@]23C[C@H]2CCCCCCC[C@H](NC(=O)OC(C)(C)C)C(=O)N2C[C@H](OC(=O)N4Cc5cccc(F)c5C4)C[C@H]2C(=O)N3)CC1 [Compound 649] | < 100 | < 100 |
| CCC1(S(=O)(=O)NC(=O)[C@@]23C[C@H]2CCCCCCC[C@H](NC(=O)OC(C)(C)C)C(=O)N2C[C@H](OC(=O)N4Cc5cccc(F)c5C4)C[C@H]2C(=O)N3)CC1 [Compound 650] | < 100 | < 100 |
| CCCC1(S(=O)(=O)NC(=O)[C@@]23C[C@H]2CCCCCCC[C@H](NC(=O)OC(C)(C)C)C(=O)N2C[C@H](OC(=O)N4Cc5cccc(F)c5C4)C[C@H]2C(=O)N3)CC1 [Compound 651] | < 100 | < 100 |
| COCC1(S(=O)(=O)NC(=O)[C@@]23C[C@H]2CCCCCCC[C@H](NC(=O)OC(C)(C)C)C(=O)N2C[C@H](OC(=O)N4Cc5cccc(F)c5C4)C[C@H]2C(=O)N3)CC1 [Compound 652] | < 100 | < 100 |
| CC(C)C1(S(=O)(=O)NC(=O)[C@@]23C[C@H]2CCCCCCC[C@H](NC(=O)OC(C)(C)C)C(=O)N2C[C@H](OC(=O)N4Cc5cccc(F)c5C4)C[C@H]2C(=O)N3)CC1 [Compound 653] | < 100 | < 100 |
| CC(C)CC1(S(=O)(=O)NC(=O)[C@@]23C[C@H]2CCCCCCC[C@H](NC(=O)OC(C)(C)C)C(=O)N2C[C@H](OC(=O)N4Cc5cccc(F)c5C4)C[C@H]2C(=O)N3)CC1 [Compound 654] | < 100 | < 100 |
| CCCS(=O)(=O)NC(=O)[C@@]12C[C@H]1CCCCCCC[C@H](NC(=O)OC(C)(C)C)C(=O)N1C[C@H](OC(=O)N3Cc4cccc(F)c4C3)C[C@H]1C(=O)N2 [Compound 655] | < 100 | < 100 |
| CC(C)CS(=O)(=O)NC(=O)[C@@]12C[C@H]1CCCCCCC[C@H](NC(=O)OC(C)(C)C)C(=O)N1C[C@H](OC(=O)N3Cc4cccc(F)c4C3)C[C@H]1C(=O)N2 [Compound 656] | < 100 | < 100 |
| Cc1cccc(ONC(=O)[C@@]23C[C@H]2/C=C\CCCCC[C@H](NC(=O)OC(C)(C)C)C(=O)N2C[C@H](OC(=O)N4Cc5cccc(F)c5C4)C[C@H]2C(=O)N3)c1 [Compound 702] | < 100 | 1000 to 10000 |
| CC(C)(C)OC(=O)N[C@H]1CCCCC/C=C\[C@@H]2C[C@@]2(C(=O)NOc2cccc(F)c2)NC(=O)[C@@H]2C[C@@H](OC(=O)N3Cc4cccc(F)c4C3)CN2C1=O [Compound 704] | < 100 | 1000 to 10000 |
| CC(C)(C)OC(=O)N[C@H]1CCCCC/C=C\[C@@H]2C[C@@]2(C(=O)NOc2ccc(Cl)cc2)NC(=O)[C@@H]2C[C@@H](OC(=O)N3Cc4cccc(F)c4C3)CN2C1=O [Compound 707] | < 100 | 1000 to 10000 |
| COc1cccc(ONC(=O)[C@@]23C[C@H]2/C=C\CCCCC[C@H](NC(=O)OC(C)(C)C)C(=O)N2C[C@H](OC(=O)N4Cc5cccc(F)c5C4)C[C@H]2C(=O)N3)c1 [Compound 708] | < 100 | 1000 to 10000 |
| CC(C)(C)OC(=O)N[C@H]1CCCCC/C=C\[C@@H]2C[C@@]2(C(=O)NOc2cccc(C(F)(F)F)c2)NC(=O)[C@@H]2C[C@@H](OC(=O)N3Cc4cccc(F)c4C3)CN2C1=O [Compound 709] | < 100 | 1000 to 10000 |
| CC(C)(C)OC(=O)N[C@H]1CCCCC/C=C\[C@@H]2C[C@@]2(C(=O)NOc2ccc(-c3ccccc3)cc2)NC(=O)[C@@H]2C[C@@H](OC(=O)N3Cc4cccc(F)c4C3)CN2C1=O [Compound 710] | < 100 | 1000 to 10000 |
| CC(C)(C)OC(=O)N[C@H]1CCCCC/C=C\[C@@H]2C[C@@]2(C(=O)NOc2ccccc2)NC(=O)[C@@H]2C[C@@H](OC(=O)N3Cc4cccc(F)c4C3)CN2C1=O [Compound 711] | < 100 | 1000 to 10000 |
| Cc1cccc(ONC(=O)[C@@]23C[C@H]2/C=C\CCCCC[C@H](NC(=O)OC(C)(C)C)C(=O)N2C[C@H](OC(=O)N4Cc5cccc(F)c5C4)C[C@H]2C(=O)N3)c1C [Compound 712] | < 100 | 1000 to 10000 |

| Structure (SMILES) | IC50 (NS3-NS4 [1]) [nM] | EC50 (NS3-NS4 [2]) [nM] |
| --- | --- | --- |
| Cc1ccc(C)c(ONC(=O)[C@@]23C[C@H]2/C=C\CCCCC[C@H](NC(=O)OC(C)(C)C)C(=O)N2C[C@H](OC(=O)N4Cc5cccc(F)c5C4)C[C@H]2C(=O)N3)c1 [Compound 713] | < 100 | 1000 to 10000 |
| Cc1ccc(ONC(=O)[C@@]23C[C@H]2/C=C\CCCCC[C@H](NC(=O)OC(C)(C)C)C(=O)N2C[C@H](OC(=O)N4Cc5cccc(F)c5C4)C[C@H]2C(=O)N3)cc1C [Compound 714] | < 100 | 1000 to 10000 |
| Cc1cc(C)cc(ONC(=O)[C@@]23C[C@H]2/C=C\CCCCC[C@H](NC(=O)OC(C)(C)C)C(=O)N2C[C@H](OC(=O)N4Cc5cccc(F)c5C4)C[C@H]2C(=O)N3)c1 [Compound 715] | < 100 | 1000 to 10000 |
| CC(C)ONC(=O)[C@@]12C[C@H]1/C=C\CCCCC[C@H](NC(=O)OC(C)(C)C)C(=O)N1C[C@H](OC(=O)N3Cc4cccc(F)c4C3)C[C@H]1C(=O)N2 [Compound 718] | < 100 | < 100 |
| CC(C)CONC(=O)[C@@]12C[C@H]1/C=C\CCCCC[C@H](NC(=O)OC(C)(C)C)C(=O)N1C[C@H](OC(=O)N3Cc4cccc(F)c4C3)C[C@H]1C(=O)N2 [Compound 719] | < 100 | < 100 |
| CC(C)(C)CONC(=O)[C@@]12C[C@H]1/C=C\CCCCC[C@H](NC(=O)OC(C)(C)C)C(=O)N1C[C@H](OC(=O)N3Cc4cccc(F)c4C3)C[C@H]1C(=O)N2 [Compound 720] | < 100 | < 100 |
| COc1cccc(ONC(=O)[C@@]23C[C@H]2CCCCCCC[C@H](NC(=O)OC(C)(C)C)C(=O)N2C[C@H](OC(=O)N4Cc5cccc(F)c5C4)C[C@H]2C(=O)N3)c1 [Compound 801] | < 100 | 1000 to 10000 |
| Cc1ccc(ONC(=O)[C@@]23C[C@H]2CCCCCCC[C@H](NC(=O)OC(C)(C)C)C(=O)N2C[C@H](OC(=O)N4Cc5cccc(F)c5C4)C[C@H]2C(=O)N3)cc1C [Compound 802] | < 100 | 1000 to 10000 |
| CC(C)(C)OC(=O)N[C@H]1CCCCCCC[C@@H]2C[C@@]2(C(=O)NOc2ccc(-c3ccccc3)cc2)NC(=O)[C@@H]2C[C@@H](OC(=O)N3Cc4cccc(F)c4C3)CN2C1=O [Compound 803] | < 100 | 1000 to 10000 |
| Cc1cccc(ONC(=O)[C@@]23C[C@H]2CCCCCCC[C@H](NC(=O)OC(C)(C)C)C(=O)N2C[C@H](OC(=O)N4Cc5cccc(F)c5C4)C[C@H]2C(=O)N3)c1 [Compound 805] | < 100 | 1000 to 10000 |
| Cc1ccc(C)c(ONC(=O)[C@@]23C[C@H]2CCCCCCC[C@H](NC(=O)OC(C)(C)C)C(=O)N2C[C@H](OC(=O)N4Cc5cccc(F)c5C4)C[C@H]2C(=O)N3)c1 [Compound 806] | < 100 | 1000 to 10000 |
| Cc1cc(C)cc(ONC(=O)[C@@]23C[C@H]2CCCCCCC[C@H](NC(=O)OC(C)(C)C)C(=O)N2C[C@H](OC(=O)N4Cc5cccc(F)c5C4)C[C@H]2C(=O)N3)c1 [Compound 807] | < 100 | 1000 to 10000 |
| Cc1ccc(ONC(=O)[C@@]23C[C@H]2CCCCCCC[C@H](NC(=O)OC(C)(C)C)C(=O)N2C[C@H](OC(=O)N4Cc5cccc(F)c5C4)C[C@H]2C(=O)N3)cc1 [Compound 808] | < 100 | 1000 to 10000 |
| CC(C)(C)OC(=O)N[C@H]1CCCCCCC[C@@H]2C[C@@]2(C(=O)NOc2ccc(Cl)cc2)NC(=O)[C@@H]2C[C@@H](OC(=O)N3Cc4cccc(F)c4C3)CN2C1=O [Compound 809] | < 100 | 1000 to 10000 |
| CC(C)(C)OC(=O)N[C@H]1CCCCCCC[C@@H]2C[C@@]2(C(=O)NOc2cccc(F)c2)NC(=O)[C@@H]2C[C@@H](OC(=O)N3Cc4cccc(F)c4C3)CN2C1=O [Compound 810] | < 100 | 1000 to 10000 |
| CC(C)(C)OC(=O)N[C@H]1CCCCCCC[C@@H]2C[C@@]2(C(=O)NOc2ccc(F)cc2)NC(=O)[C@@H]2C[C@@H](OC(=O)N3Cc4cccc(F)c4C3)CN2C1=O [Compound 811] | < 100 | 1000 to 10000 |
| CC(C)ONC(=O)[C@@]12C[C@H]1CCCCCCC[C@H](NC(=O)OC(C)(C)C)C(=O)N1C[C@H](OC(=O)N3Cc4cccc(F)c4C3)C[C@H]1C(=O)N2 [Compound 812] | < 100 | < 100 |
| CC(C)(C)OC(=O)N[C@H]1CCCCCCC[C@@H]2C[C@@]2(C(=O)NOCC2CC2)NC(=O)[C@@H]2C[C@@H](OC(=O)N3Cc4cccc(F)c4C3)CN2C1=O [Compound 813] | < 100 | < 100 |
| CC(C)CONC(=O)[C@@]12C[C@H]1CCCCCCC[C@H](NC(=O)OC(C)(C)C)C(=O)N1C[C@H](OC(=O)N3Cc4cccc(F)c4C3)C[C@H]1C(=O)N2 [Compound 814] | < 100 | < 100 |
| CC(C)(C)ONC(=O)[C@@]12C[C@H]1CCCCCCC[C@H](NC(=O)OC(C)(C)C)C(=O)N1C[C@H](OC(=O)N3Cc4cccc(F)c4C3)C[C@H]1C(=O)N2 [Compound 815] | < 100 | < 100 |

From patent US20090155209A1, “NOVEL MACROCYCLIC INHIBITORS OF HEPATITIS C VIRUS REPLICATION” (priority 2007, published 2009)
